Assay results reported in ChEMBL document CHEMBL1201862, “PubChem BioAssay data set” (2004).
Activity calls are given as the source filed them.

Legend:
HEK293 [1] = assay: NOD1 signaling inhibitors, primary screen, cell-based, luminescence, uHTS (AID 1578); assay type: functional; settings: Homo sapiens
HEK293 [2] = assay: cells; assay type: functional, cell-based; settings: Homo sapiens
HEK293 [3] = assay: cells; assay type: functional, cell-based; settings: Homo sapiens; remark: listed apart in the source
[4] = molecular target: Nucleotide-binding oligomerization domain-containing protein 2 (Homo sapiens, UniProt Q9HC29); assay: NOD2 signaling inhibitors, cell-based, luminescence, uHTS, HEK293 (AID 1566); assay type: functional
Sequence of Nucleotide-binding oligomerization domain-containing protein 2 (Q9HC29 whole entry, the tested form may be a part): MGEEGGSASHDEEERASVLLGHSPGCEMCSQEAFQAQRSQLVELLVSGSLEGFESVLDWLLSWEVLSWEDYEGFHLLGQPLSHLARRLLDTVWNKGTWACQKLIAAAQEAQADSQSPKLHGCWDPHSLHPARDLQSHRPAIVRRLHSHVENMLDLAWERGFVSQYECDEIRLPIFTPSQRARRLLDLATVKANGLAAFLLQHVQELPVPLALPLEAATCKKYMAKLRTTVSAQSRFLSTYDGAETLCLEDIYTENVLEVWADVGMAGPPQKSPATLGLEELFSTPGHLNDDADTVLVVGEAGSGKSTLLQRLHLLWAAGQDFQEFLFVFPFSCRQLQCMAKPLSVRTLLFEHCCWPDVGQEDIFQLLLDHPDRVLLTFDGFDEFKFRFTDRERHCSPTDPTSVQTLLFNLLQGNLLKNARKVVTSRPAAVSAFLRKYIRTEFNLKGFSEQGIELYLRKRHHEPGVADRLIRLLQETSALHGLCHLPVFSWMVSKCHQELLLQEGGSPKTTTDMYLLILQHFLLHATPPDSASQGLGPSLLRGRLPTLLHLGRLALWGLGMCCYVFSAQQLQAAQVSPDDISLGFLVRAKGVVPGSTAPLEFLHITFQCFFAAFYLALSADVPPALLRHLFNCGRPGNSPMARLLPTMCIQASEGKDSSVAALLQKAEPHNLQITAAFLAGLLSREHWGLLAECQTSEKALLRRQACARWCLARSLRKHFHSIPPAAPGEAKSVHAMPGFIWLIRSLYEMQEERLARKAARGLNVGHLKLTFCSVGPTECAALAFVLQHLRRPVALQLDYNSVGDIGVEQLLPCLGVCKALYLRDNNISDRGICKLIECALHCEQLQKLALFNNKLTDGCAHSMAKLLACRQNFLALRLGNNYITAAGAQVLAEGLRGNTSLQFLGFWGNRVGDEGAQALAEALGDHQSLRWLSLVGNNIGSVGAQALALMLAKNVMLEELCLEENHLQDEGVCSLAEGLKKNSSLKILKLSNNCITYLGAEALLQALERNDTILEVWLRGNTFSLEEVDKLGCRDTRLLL

HEK293 [5] = assay: NOD2 signaling inhibitors in MDP-stimulated cells, cell-based, uHTS, luminescence (AID 2001); assay type: functional; settings: Homo sapiens
HEK293 [6] = assay: cells; assay type: functional, cell-based; settings: Homo sapiens; remark: listed apart in the source
Albumin = Albumin (Bos taurus, UniProt P02769); assay: Counterscreen for inhibitors of T-cell receptor (TCR)-CD3 interaction: Fluorescence-based biochemical high throughput dose response assay to identify inhibitors of T-cell receptor (TCR)-CD3 interaction using a TAMRA-labeled BSA probe.; assay type: functional
Sequence of Albumin (P02769 whole entry): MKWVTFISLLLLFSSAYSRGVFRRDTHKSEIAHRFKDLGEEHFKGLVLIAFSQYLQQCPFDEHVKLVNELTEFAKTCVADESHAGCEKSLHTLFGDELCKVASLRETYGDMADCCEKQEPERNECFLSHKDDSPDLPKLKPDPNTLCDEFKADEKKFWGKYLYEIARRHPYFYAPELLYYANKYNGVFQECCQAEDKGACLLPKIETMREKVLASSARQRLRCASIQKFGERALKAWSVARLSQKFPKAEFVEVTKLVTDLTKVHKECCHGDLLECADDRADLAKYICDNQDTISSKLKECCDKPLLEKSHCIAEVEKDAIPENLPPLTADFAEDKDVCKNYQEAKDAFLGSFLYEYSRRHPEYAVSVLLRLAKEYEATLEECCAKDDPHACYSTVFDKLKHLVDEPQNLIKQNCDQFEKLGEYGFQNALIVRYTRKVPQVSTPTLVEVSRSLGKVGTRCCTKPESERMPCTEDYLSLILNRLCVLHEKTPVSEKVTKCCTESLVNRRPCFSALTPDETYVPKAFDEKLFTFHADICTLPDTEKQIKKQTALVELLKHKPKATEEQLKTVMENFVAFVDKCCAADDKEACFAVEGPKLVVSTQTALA

Mu-type opioid receptor = Mu-type opioid receptor (Homo sapiens, UniProt P35372); assay type: functional, cell-based;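 note: U2OS cells with beta-arrestin recruitment to OPRM1 by beta-gal complementation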
Sequence of Mu-type opioid receptor (P35372 whole entry): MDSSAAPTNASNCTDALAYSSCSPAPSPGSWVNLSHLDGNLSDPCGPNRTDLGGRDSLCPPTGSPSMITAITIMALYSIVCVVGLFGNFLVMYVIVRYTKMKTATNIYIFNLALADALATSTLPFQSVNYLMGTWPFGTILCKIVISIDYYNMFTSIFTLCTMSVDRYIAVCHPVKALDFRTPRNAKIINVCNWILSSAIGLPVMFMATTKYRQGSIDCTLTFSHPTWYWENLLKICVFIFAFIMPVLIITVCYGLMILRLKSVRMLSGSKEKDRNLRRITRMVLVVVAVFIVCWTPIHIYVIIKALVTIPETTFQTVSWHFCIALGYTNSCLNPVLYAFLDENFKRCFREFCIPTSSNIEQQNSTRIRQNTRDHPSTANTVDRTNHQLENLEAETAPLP

[7] = molecular target: 5-hydroxytryptamine receptor 2A (Mus musculus, UniProt P35363); assay type: functional, cell-based;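 note: CHO-K1 cells with tagged receptor and beta-arrestin; agonist potency measured as compound-induced activation of the receptor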
Sequence of 5-hydroxytryptamine receptor 2A (P35363 whole entry): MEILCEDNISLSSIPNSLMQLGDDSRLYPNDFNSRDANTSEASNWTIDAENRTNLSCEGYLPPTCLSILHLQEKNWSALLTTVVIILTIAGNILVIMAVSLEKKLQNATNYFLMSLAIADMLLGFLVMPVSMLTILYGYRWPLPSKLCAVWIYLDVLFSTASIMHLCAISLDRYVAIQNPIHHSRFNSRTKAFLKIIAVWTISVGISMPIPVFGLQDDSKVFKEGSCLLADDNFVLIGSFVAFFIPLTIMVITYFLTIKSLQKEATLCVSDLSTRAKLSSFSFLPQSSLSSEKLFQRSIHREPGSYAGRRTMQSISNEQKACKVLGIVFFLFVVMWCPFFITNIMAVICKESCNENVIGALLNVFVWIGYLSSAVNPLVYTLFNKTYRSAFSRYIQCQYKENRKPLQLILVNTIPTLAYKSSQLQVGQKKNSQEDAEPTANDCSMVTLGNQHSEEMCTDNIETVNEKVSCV

[8] = molecular target: T1, Polyadenylate-binding protein 1 (Homo sapiens, UniProt P11940); assay: PABP1 MLLE–PAM2 interaction inhibitors, dose response, miRNA deadenylation inhibitor project, biochemical, fluorescence polarization, Cy5-PAM2 peptide, secondary (AID 602260); assay type: functional; settings: read-out: IC50_Mean
T1 sequence (P11940 whole entry): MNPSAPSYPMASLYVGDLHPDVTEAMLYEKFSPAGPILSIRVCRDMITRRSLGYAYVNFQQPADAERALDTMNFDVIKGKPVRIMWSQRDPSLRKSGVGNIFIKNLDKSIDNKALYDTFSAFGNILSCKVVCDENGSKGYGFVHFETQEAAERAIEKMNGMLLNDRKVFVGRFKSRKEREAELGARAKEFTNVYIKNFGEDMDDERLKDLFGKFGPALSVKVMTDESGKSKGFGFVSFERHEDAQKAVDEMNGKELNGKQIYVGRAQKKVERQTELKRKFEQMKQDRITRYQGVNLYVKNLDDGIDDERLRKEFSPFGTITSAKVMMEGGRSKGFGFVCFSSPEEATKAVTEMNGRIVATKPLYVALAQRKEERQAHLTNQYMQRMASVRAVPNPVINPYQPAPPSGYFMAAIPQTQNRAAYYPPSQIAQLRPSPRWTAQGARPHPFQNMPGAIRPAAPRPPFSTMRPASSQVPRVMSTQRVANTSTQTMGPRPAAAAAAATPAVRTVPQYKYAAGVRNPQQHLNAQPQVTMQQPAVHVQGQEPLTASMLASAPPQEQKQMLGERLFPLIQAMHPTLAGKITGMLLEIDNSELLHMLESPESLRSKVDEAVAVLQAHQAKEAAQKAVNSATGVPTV

[9] = molecular target: T1, Polyadenylate-binding protein 1; assay: PABP1 MLLE–PAM2 binding inhibitor potency, dose response, biochemical, fluorescence polarization, FITC-PAM2 peptide (AID 602259); assay type: functional; settings: read-out: IC50_Mean
[10] = molecular target: Botulinum neurotoxin type F (Clostridium botulinum, UniProt P30996); assay: High-throughput multiplex microsphere dose response for inhibitors of toxin protease, specifically Botulinum neurotoxin light chain F protease, compounds from Cherry Pick 02.; assay type: functional; settings: read-out: EC50_MICROM
Sequence of Botulinum neurotoxin type F (P30996 1-436 limits assumed): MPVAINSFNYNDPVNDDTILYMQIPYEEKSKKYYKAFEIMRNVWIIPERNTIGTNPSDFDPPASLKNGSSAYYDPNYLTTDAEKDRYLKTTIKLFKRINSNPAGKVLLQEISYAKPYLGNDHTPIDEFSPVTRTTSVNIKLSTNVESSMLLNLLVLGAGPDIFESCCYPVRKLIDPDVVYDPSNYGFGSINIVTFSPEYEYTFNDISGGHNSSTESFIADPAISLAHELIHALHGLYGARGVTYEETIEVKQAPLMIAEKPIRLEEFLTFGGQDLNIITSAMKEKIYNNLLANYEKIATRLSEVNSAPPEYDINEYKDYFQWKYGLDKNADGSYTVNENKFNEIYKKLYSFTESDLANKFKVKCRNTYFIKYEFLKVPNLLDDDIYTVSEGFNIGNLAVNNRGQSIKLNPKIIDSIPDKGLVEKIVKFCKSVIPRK

Protein skinhead-1 = molecular target: T2, Protein skinhead-1 (Caenorhabditis elegans, UniProt P34707); assay type: functional
T2 sequence (P34707 whole entry): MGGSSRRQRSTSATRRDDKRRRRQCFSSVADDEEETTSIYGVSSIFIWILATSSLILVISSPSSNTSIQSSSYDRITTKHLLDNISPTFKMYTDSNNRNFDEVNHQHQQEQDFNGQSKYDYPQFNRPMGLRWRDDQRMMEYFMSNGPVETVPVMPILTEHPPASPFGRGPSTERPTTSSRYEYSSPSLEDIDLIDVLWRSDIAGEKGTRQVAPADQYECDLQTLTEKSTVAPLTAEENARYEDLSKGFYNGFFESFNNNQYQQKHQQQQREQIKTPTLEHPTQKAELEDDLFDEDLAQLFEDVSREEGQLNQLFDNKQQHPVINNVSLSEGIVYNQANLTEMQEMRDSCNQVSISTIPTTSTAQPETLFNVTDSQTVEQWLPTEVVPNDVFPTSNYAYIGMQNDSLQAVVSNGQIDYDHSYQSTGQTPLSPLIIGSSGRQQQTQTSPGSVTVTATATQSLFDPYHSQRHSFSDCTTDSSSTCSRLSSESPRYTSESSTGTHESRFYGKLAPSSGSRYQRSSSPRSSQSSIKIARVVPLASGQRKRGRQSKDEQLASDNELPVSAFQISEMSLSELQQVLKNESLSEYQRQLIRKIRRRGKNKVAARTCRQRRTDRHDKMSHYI

[11] = HEK293 cell viability, dose response, counter-screen for EBV LMP1 inhibitor project, dry powder, set 2 (AID 624374); assay type: functional
[12] = lymphoblastoid cell cytotoxicity, dose response, cytotoxicity control, plate reader, dry powder, set 2 (AID 624367); assay type: functional
[13] = P. falciparum Dd2 growth inhibitors, dose response, SYBR Green, dry powder samples, set 9 (AID 1159568); assay type: functional, cell-based
Vero = assay: cells; assay type: functional; settings: Chlorocebus sabaeus
BHK-21 = assay: BHK-21 cell toxicity, dose response, cytotoxicity control, plate reader, cherry-pick samples (AID 687030); assay type: functional, cell-based; settings: Mesocricetus auratus
Cryptococcus neoformans = assay: PubChem AID 686997; assay type: functional, organism-based
HeLa = assay: HeLa cell cytotoxicity, dose response, cytotoxicity control, ATP luminescence, cherry-pick samples (AID 687004); assay type: functional, cell-based; settings: Homo sapiens
HEK293 [14] = assay: HEK293T cell cytotoxicity, dose response, cytotoxicity control, ATP luminescence, cherry-pick samples (AID 687005); assay type: functional, cell-based; settings: Homo sapiens;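 note: cells exposed to compound for 48 hours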
[15] = HEK293 Cytotoxicity Assay Measured in Cell-Based System Using Plate Reader - 7071-01_Inhibitor_Dose_CherryPick_Activity_Set2.; assay type: functional

Question: With `O=C(CNC(=O)c1cccc(Br)c1)N/N=C/c1cc(Br)cc(Br)c1O` as the compound, how does the EC50 (HEK293 [1]) read?
Answer: > 20 µM (inactive)

Question: What about the IC50 (HEK293 [2]) of the same compound?
Answer: 19.4 µM (active)

Question: What about the IC50 (HEK293 [3]) of the same compound?
Answer: > 20 µM (inactive)

Question: And the EC50 [4]?
Answer: > 20 µM (inactive)

Question: What about the IC50 (HEK293 [5]) of the same compound?
Answer: > 20 µM (inactive)

Question: What about the IC50 (HEK293 [6]) of the same compound?
Answer: > 20 µM (inactive)

Question: What about the IC50 (Albumin) of the same compound?
Answer: > 94.1 µM (inactive)

Question: Which EC50 (Mu-type opioid receptor) does the source give for `COc1ccc(CN2CCN(c3ncccn3)CC2)c(OC)c1` here?
Answer: 92.5 µM (inactive)

Question: And the EC50 [7]?
Answer: 0.322 µM (active)

Question: Which results are given for `Cc1cc2cc(CNC(=O)c3ccc(S(=O)(=O)N(C)C)cc3)ccc2n1C`?
Answer: IC50 [8]: > 66 µM (inactive); IC50 [9]: > 66 µM (inactive); EC50 [10]: > 20 µM (inactive); IC50 (Protein skinhead-1): > 100 µM (inactive)

Question: Which results are given for `CC(C)(C)[S@+]([O-])N1Cc2cc(C(=O)NCC(F)(F)F)nc(-c3cccc(-c4cccc(F)c4)c3)c2[C@@H]1CCO`?
Answer: AbsAC35 [11]: 111.16 µM; AbsAC35 [12]: 124.56 µM; AC50 [13]: 6.29 µM (active)

Question: Which CC50 (Vero) does the source give for `CN(C)CCCN1c2ccccc2Sc2ccc3ccccc3c21` here?
Answer: 16.2 µM (active)

Question: And the AC50 (BHK-21)?
Answer: 36 µM (active)

Question: What does the source list for `COC(=O)C1=C(C)N(Cc2ccc(Cl)cc2)C(=S)NC1c1cccc(Cl)c1` (configuration not stated)?
Answer: AC50 (Cryptococcus neoformans): > 70 µM (inactive); AC50 (HeLa): > 47 µM (inactive); AC50 (HEK293 [14]): 23.4 µM (active); AC50 [15]: 23.4 µM (active)
